For 16 molecules, TGI and GI50 results are on record in PubChem BioAssay (NCI).

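Each compound was tested at five concentrations against cells in 96-well plates for 48 hours. GI50 = concentration required for 50% inhibition of growth. At the TGI there is no net growth.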

Test systems include U251 CNS; SK-OV-3 ovarian; HOP-62 NSCLC; OVCAR-3 ovarian; NCI-H460 lung; KM12 colon; A549 NSCLC; MDA-N; RXF 393 renal; HOP-92 NSCLC.
Common to all, as to assay: DTP human tumour cell line panel, 48 h

Usually TGI stands for the concentration giving total growth inhibition. A higher TGI goes with less potent growth arrest. `N=S(=O)(c1ccccc1)c1ccccc1`: the total growth inhibition concentration (TGI) in the assay with U251 CNS, with SK-OV-3 ovarian, in the assay with HOP-62 NSCLC, with OVCAR-3 ovarian, with NCI-H460 lung and in the assay with KM12 colon was more than 100 µM throughout. Also, the TGI with A549 NSCLC was more than 100 µM.

`CCCc1n[nH]c(=O)n1N1C(=O)C=CC1=O`: the TGI in the assay with U251 CNS, in the assay on SK-OV-3 ovarian, in the assay on HOP-62 NSCLC, with OVCAR-3 ovarian, in the assay on NCI-H460 lung and in the assay with MDA-N was more than 100 µM each time. In addition, the TGI with A549 NSCLC and with RXF 393 renal was more than 100 µM throughout.

Take `Cc1cc(Br)cc(C)c1NC(=O)C(=O)C(C(=O)c1ccncc1)C1OC(=O)c2ccccc21` (stereo not given): the TGI in the assay on U251 CNS, in the assay on SK-OV-3 ovarian, in the assay with HOP-62 NSCLC, with OVCAR-3 ovarian, in the assay with HOP-92 NSCLC and in the assay with NCI-H460 lung was more than 100 µM throughout. In addition, the TGI in the assay with KM12 colon, with A549 NSCLC and with RXF 393 renal was more than 100 µM each time.

As for `CC(C)(C)c1ccc(O)c(C(c2ccc([N+](=O)[O-])cc2)c2cc(C(C)(C)C)ccc2O)c1`, the TGI in the assay on U251 CNS is 4.81 µM; with SK-OV-3 ovarian, 4.15 µM; in the assay with HOP-62 NSCLC, 3.39 µM; with OVCAR-3 ovarian, 3.25 µM; in the assay with HOP-92 NSCLC, 3.7 µM; with A549 NSCLC, 3.77 µM. Besides, the TGI with RXF 393 renal stood at 3.66 µM.

For the molecule `Nc1ccc2nc(Nc3ccc(Cl)c(Cl)c3)cnc2c1`, the TGI in the assay with U251 CNS was determined as 44.2 µM; with HOP-62 NSCLC, 36.2 µM; in the assay with OVCAR-3 ovarian, 36.7 µM; with NCI-H460 lung, 45.3 µM; with KM12 colon, 32.3 µM; in the assay with A549 NSCLC, 41.9 µM.

With `COC(=O)c1ccccc1NC(=S)NN(C)C`, the TGI in the assay on U251 CNS, in the assay with SK-OV-3 ovarian, in the assay on OVCAR-3 ovarian, in the assay with MDA-N, with KM12 colon and in the assay on A549 NSCLC was more than 100 µM throughout. This molecule also showed a TGI in the assay with RXF 393 renal of more than 100 µM.

Turning to `Nc1ncnc2c1sc(=S)n2-c1ccccc1`, the TGI in the assay with U251 CNS, in the assay on SK-OV-3 ovarian, in the assay with HOP-62 NSCLC, in the assay on OVCAR-3 ovarian, with HOP-92 NSCLC and in the assay on NCI-H460 lung was more than 100 µM throughout. Besides, the TGI in the assay with KM12 colon, in the assay with A549 NSCLC and in the assay with RXF 393 renal was more than 100 µM in each case.

In the case of `Cc1ccc(S(=O)(=O)NC(=O)NCCc2ccc(O)c(O)c2)cc1`, the TGI in the assay on U251 CNS, with SK-OV-3 ovarian, with HOP-62 NSCLC, in the assay with OVCAR-3 ovarian, with HOP-92 NSCLC and with NCI-H460 lung was more than 100 µM in each case. Moreover, the TGI in the assay on KM12 colon, with A549 NSCLC and in the assay with RXF 393 renal was more than 100 µM each time.

Consider `C[N+](C)=c1ccc2nc3c(ccc4ccccc43)oc-2c1`, for which the TGI was found to be 29.5 µM with U251 CNS; 33.5 µM in the assay with SK-OV-3 ovarian; 34.2 µM with HOP-62 NSCLC; 14 µM in the assay with OVCAR-3 ovarian; 32.7 µM in the assay with HOP-92 NSCLC; 37.7 µM in the assay on NCI-H460 lung. Further, the TGI with KM12 colon stood at 32.2 µM; in the assay on A549 NSCLC, 37.1 µM; in the assay with RXF 393 renal, 26 µM.

As to `CCOP(=O)(OCC)/C(C#N)=C\c1ccsc1`, the TGI with U251 CNS, with SK-OV-3 ovarian, in the assay with HOP-62 NSCLC, in the assay on OVCAR-3 ovarian, in the assay with HOP-92 NSCLC and in the assay with NCI-H460 lung was more than 100 µM in each case. Besides, the concentration for total growth inhibition (TGI) in the assay on KM12 colon, in the assay with A549 NSCLC and in the assay with RXF 393 renal was more than 100 µM each time.

One may read the GI50 as the concentration giving 50% growth inhibition. For the molecule `COc1cccc2c1C(=O)c1c(O)c3c(c(O)c1C2=O)C[C@@](O)(C(=O)CN1CCOCC1)C[C@@H]3OC1CC(N)C(O)C(C)O1` (stereo not given in full), the TGI in the assay on U251 CNS was more than 100 µM; with SK-OV-3 ovarian, more than 100 µM; in the assay on HOP-62 NSCLC, 14.2 µM; with OVCAR-3 ovarian, 57.4 µM; with HOP-92 NSCLC, 33.9 µM; in the assay on NCI-H460 lung, more than 69.9 µM. For the same molecule, the TGI in the assay with KM12 colon was determined as 51.5 µM; with A549 NSCLC, 48.6 µM; in the assay on RXF 393 renal, 23.9 µM. For the same molecule, the GI50 with OVCAR-3 ovarian was 10.6 µM; in the assay with HOP-92 NSCLC it was 5.27 µM.

For the molecule `C=C1C2C[C@@H]3OC4CC5O[C@]6(CC5OC4C(C)C3OC(=O)CC3CC[C@@H]4OC5C7OC8C[C@](CCC9CC(=C)[C@H](CCC(C[C@H]1C)O2)O9)(OC7C4O3)O[C@@H]85)C[C@@H]1O[C@@]2(CC(C)[C@@H]3OC(CC(=O)CCO)C(O)C[C@@H]3O2)CC(C)[C@@H]1O6` (stereo not given in full), the TGI with SK-OV-3 ovarian was 0.905 µM; in the assay on HOP-62 NSCLC it was 0.0034 µM; in the assay with OVCAR-3 ovarian it was less than 0.001 µM; in the assay with HOP-92 NSCLC it was 0.0017 µM; in the assay with NCI-H460 lung, 1.33 µM; with KM12 colon, 0.00228 µM. Moreover, the TGI in the assay with A549 NSCLC stood at 1.28 µM.

In the case of `CNC(=O)c1cc2nc3ccccc3c(=O)n2c2ccccc12`, the total growth inhibition concentration (TGI) in the assay on U251 CNS, with SK-OV-3 ovarian, with HOP-62 NSCLC, in the assay on OVCAR-3 ovarian, in the assay with HOP-92 NSCLC and in the assay on KM12 colon was more than 10 µM throughout. Also, the TGI with A549 NSCLC and in the assay on RXF 393 renal was more than 10 µM each time.

Regarding `COc1ccc(C2S/C(=C\c3cccc(OC)c3)C(=O)N2NC(=O)Cc2ccccc2)cc1` (stereo not given), the TGI with U251 CNS, in the assay with SK-OV-3 ovarian, with HOP-62 NSCLC, with HOP-92 NSCLC, in the assay with NCI-H460 lung and in the assay with KM12 colon was more than 100 µM each time. The TGI in the assay on A549 NSCLC and in the assay on RXF 393 renal was more than 100 µM throughout.

Regarding `COc1cc(OCc2nc3cc(C(F)(F)F)ccc3nc2-c2ccccc2)cc(OC)c1OC`, the concentration for total growth inhibition (TGI) in the assay on U251 CNS, in the assay with SK-OV-3 ovarian, with OVCAR-3 ovarian, in the assay on HOP-92 NSCLC, with NCI-H460 lung and in the assay with KM12 colon was more than 100 µM each time. For the same molecule, the TGI is more than 100 µM in the assay with A549 NSCLC and 65.8 µM in the assay with RXF 393 renal.

As for `Brc1c2nc3ccccc3nc2n2ccc3ccccc3c12`, the TGI in the assay with U251 CNS, in the assay with SK-OV-3 ovarian, in the assay with HOP-62 NSCLC, in the assay with OVCAR-3 ovarian, with HOP-92 NSCLC and with NCI-H460 lung was more than 100 µM each time. For the same molecule, the TGI with KM12 colon and in the assay on A549 NSCLC was more than 100 µM throughout.
